Assay results: US6133311A, “Method for preventing or treating elevated blood lipid level-related diseases by administering natural phenolic compounds” (priority 1998, dated 2000)

Tests used:
HMG-CoA reductase = molecular target: T1, HMG-CoA reductase (Rattus norvegicus, UniProt P51639); assay: HMG-CoA reductase inhibition in liver microsomes of fed rats; assay type: biochemical; conditions: liver microsomes of rats fed 0.1% compound, vs Control
T1 construct: from tissue; host or cells: rat liver microsomes
T1 sequence (P51639 1-887): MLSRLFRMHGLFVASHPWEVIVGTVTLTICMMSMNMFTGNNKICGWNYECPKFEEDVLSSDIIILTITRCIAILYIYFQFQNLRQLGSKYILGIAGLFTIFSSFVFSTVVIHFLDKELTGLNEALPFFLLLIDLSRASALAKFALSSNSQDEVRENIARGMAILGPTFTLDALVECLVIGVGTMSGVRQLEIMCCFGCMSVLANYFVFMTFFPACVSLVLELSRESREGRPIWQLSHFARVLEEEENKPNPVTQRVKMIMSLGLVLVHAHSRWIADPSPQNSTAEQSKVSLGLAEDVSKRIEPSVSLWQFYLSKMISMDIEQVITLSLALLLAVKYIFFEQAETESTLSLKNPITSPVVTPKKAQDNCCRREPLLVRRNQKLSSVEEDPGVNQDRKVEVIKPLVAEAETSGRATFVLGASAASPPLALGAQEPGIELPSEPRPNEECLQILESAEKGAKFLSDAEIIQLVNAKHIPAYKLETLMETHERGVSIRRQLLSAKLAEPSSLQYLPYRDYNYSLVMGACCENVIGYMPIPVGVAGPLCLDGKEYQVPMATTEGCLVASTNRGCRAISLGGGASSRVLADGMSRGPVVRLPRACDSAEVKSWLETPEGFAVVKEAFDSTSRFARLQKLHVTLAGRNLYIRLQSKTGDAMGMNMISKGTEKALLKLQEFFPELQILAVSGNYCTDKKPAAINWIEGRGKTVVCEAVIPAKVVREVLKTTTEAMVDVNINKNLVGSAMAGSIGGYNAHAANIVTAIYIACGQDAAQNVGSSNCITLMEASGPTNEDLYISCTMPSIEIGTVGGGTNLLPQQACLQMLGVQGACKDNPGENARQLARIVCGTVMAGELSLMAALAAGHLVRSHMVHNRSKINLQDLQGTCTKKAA
Method: Activity of tannin or gallic acid in HMG-CoA Reductase Inhibition
In order to determine the activity of HMG-CoA reductase, Hulcher's method was employed after some modification (see J. Lipid Res., 14, 625-641 (1973)). In this method, the concentration of the coenzyme-A (CoA-SH), which is produced when HMG-COA is reduced to a mevalonate salt by the action of HMG-COA reductase, is determined by spectroscopy and the activity of HMG-CoA reductase is calculated therefrom.
(Step 1) Preparation of microsomes
3 g of liver tissue taken from each group of rats of Example 2 was washed successively with 100 ml of a cold Saline (0.15M NaCl) and 100 ml of a cold buffer solution A (0.1M triethanolamine, HCl/0.2M EDTA/2 mM dithiothreitol (DTT)). The cold buffer solution A was added to the liver tissue in an amount of 2 ml per 1 g of the liver tissue and the mixture was homogenized with a homogenizer. […]
Then, the reactant was mixed with 20 μl of DTNB buffer solution (3mM DTNB/0.1M triethanolamine/0.2M EDTA, pH 7.4) and the absorbance of the mixture was determined at 412 nm to calculate the amount of CoA-SH (activity of HMG-COA reductase).
The extent of inhibition of HMG-CoA reductase activity by tannin and gallic acid were calculated based on the above result.

[1] = acute oral toxicity in mice; assay type: in vivo, ICR mice; conditions: for toxicity: oral, mouse, single dose 5,000 mg/kg
Method: Toxicity of Orally Administered tannin, gallic acid or ellagic acid
36 seven-week-old, specific pathogen-free ICR […] female mice each weighing about 25 to 29 g and 18 male mice each weighing about 34 to 38 9, were kept under an environment of 22±1° C., 55±5% relative humidity and 12L/12D photoperiod. Fodder (Cheiljedang Co., mouse and rat fodder) and water were sterilized and fed to the mice.
Tannin, gallic acid or ellagic acid purchased from Aldrich-Sigma Chemical Co. (St. Louis, Mo., U.S.A) was dissolved in 0.5% Tween 80 to a concentration of 500 mg/ml, and the solution was orally administered to the mice in an amount of 0.2 ml per 20 g of mouse body weight. […] Further, on the 10th day, the mice were sacrificed and the internal organs were visually examined.

**Q.** For `O=C(O)c1cc(O)c(O)c(O)c1` [Gallic acid, gallic acid], which “Inhibition of HMG-CoA reductase activity” value (HMG-CoA reductase) is on record?
**A.** Its value is 6.0%.

**Q.** And the weight loss ([1]; oral 5,000 mg/kg, 10 day test period)?
**A.** Its weight loss is “no weight loss”.

**Q.** And the “pathological abnormality at autopsy” value ([1]; oral 5,000 mg/kg, day 10)?
**A.** Its value is “had not developed any pathological abnormality”.

**Q.** What about the survival ([1]; oral 5,000 mg/kg, day 10) of the same compound?
**A.** The survival was “All the mice were alive at day 10”.

**Q.** What about the toxicity [1] of the same compound?
**A.** The toxicity was “no toxicity”.

**Q.** Which “Inhibition of HMG-CoA reductase activity” value (HMG-CoA reductase) does the source give for tannin here?
**A.** The value was 23.5%.

**Q.** What about the toxicity [1] of the same compound?
**A.** Its toxicity is “no toxicity”.
